Like-named read-outs stand apart in the source and are kept apart here. Values belong to the molecule of their own block, whether it stands above or below them.
How the values were obtained:
[1] = tested on: TLR2 induced IL-6 in peripheral blood mononuclear cells (PBMCs); assay: PBMC TLR2 Induced IL-6 Assay; format: cell-based, human; conditions: IL-6 by ELISA; for EC50: read-out: Cell EC50; for IC50: read-out: Cell IC50
Description: PBMC TLR2 Induced IL-6 Assay
Peripheral blood mononuclear cells (PBMCs) were isolated from human blood containing the anti-coagulant EDTA (2.5 mM) by centrifugation over a FICOLL® gradient. PBMCs (250000 cells/well) were cultured in assay media (RPMI with 10% heat inactivated FCS) with compounds for 30 minutes at 37° C. in a 5% CO2 incubator. Following pretreatment with compounds, cells were stimulated for 5 hours with 10 µg/ml lipoteichoic acid (Invivogen, San Diego, Calif.), a TLR2 agonist. At the end of the culture, plates were centrifuged at 1800 rpm for 10 minutes to pellet the cells.

IRAK4 = IRAK4 (Homo sapiens (Human), UniProt Q9NWZ3); assay: IRAK4 Inhibition Assay; format: biochemical
Description: The assays were performed in U-bottom 384-well plates. […] The reaction was initiated by the combination of IRAK4 with substrates and test compounds. The reaction mixture was incubated at room temperature for 60 min. and terminated by adding 45 μL of 35 mM EDTA to each sample. The reaction mixture was analyzed on the Caliper LABCHIP® 3000 (Caliper, Hopkinton, Mass.) by electrophoretic separation of the fluorescent substrate and phosphorylated product.

[2] = Homo sapiens, PBMC, human PBMCs, lipoteichoic acid stimulated
[3] = ATP 500 μM, IRAK4 0.6 nM, read-out: IRAK4 IC50
[4] = Homo sapiens, PBMC, PBMC TLR2 Induced IL-6 Assay, lipoteichoic acid stimulation
[5] = IRAK4 Inhibition Assay, ATP 500 μM, read-out: IRAK4 IC50
[6] = PBMC TLR2 Induced IL-6 Assay, lipoteichoic acid stimulation
[7] = human PBMCs, lipoteichoic acid stimulated

Sequence of IRAK4 (Q9NWZ3 whole entry, species assumed): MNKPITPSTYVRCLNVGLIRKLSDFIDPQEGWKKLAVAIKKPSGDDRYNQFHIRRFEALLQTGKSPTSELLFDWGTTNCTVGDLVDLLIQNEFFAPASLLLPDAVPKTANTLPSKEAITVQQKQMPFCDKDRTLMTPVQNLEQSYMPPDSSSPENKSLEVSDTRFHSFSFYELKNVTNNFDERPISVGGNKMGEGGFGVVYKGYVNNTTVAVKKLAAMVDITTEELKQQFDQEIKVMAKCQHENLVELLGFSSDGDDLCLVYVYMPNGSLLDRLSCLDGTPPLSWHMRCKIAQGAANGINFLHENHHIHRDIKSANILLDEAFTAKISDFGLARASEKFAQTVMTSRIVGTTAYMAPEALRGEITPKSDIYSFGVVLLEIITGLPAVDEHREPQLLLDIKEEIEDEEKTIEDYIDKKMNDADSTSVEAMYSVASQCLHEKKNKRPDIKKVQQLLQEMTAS

Structure (SMILES): CC1COCCN1CCNc1cc(-n2ccc3cc(C#N)cnc32)ncc1C(=O)NC[C@@H](F)C(C)(C)O (mixture of isomers) [Example 483]
EC50 [1, 2]: 199 nM | IC50 (IRAK4; [3]): 10.8 nM

Structure (SMILES): CC(F)(CO)CNc1cc(-n2ncc3cc(C#N)cnc32)ncc1C(=O)NC[C@@H](F)C(C)(C)O (mixture of isomers) [Example 575]
IC50 [1, 2]: 587 nM | IC50 (IRAK4; [3]): 11.8 nM

Structure (SMILES): CC(CCO)Nc1cc(-n2ccc3cc(C#N)cnc32)ncc1C(=O)NC[C@@H](F)C(C)(C)O (single isomer, unassigned) [Example 21]
EC50 [1, 4]: 51 nM | IC50 (IRAK4; [5]): 2.3 nM

Structure (SMILES): CC(CCO)Nc1cc(-n2ccc3cc(C#N)cnc32)ncc1C(=O)NC[C@@H](F)C(C)(C)O (single isomer, unassigned) [Example 22]
EC50 [1, 6]: 47 nM | IC50 (IRAK4; [5]): 1.8 nM

Structure (SMILES): CC(C)(O)[C@H](F)CNC(=O)c1cnc(-n2ccc3cc(C#N)cnc32)cc1NC1CCCC(F)(F)C1O (single isomer, unassigned) [Example 112]
EC50 [1, 4]: 159 nM | IC50 (IRAK4; IRAK4 IC50): 4.4 nM

Structure (SMILES): CC(C)Nc1cc(-n2ccc3cc(C#N)cnc32)ncc1C(=O)NC[C@@H](F)C(C)NC(C)C (single isomer, unassigned) [Example 129]
EC50 [1, 6]: 451 nM | IC50 (IRAK4; [5]): 4.1 nM

Structure (SMILES): CC(C)Nc1cc(-n2ccc3cc(C#N)cnc32)ncc1C(=O)NC[C@@H](F)C(C)NC(C)C (single isomer, unassigned) [Example 130]
EC50 [1, 6]: 99 nM | IC50 (IRAK4; [5]): 2.3 nM

Structure (SMILES): CC(C)(O)[C@H](F)CNC(=O)c1cnc(-n2ncc3cc(C#N)cnc32)cc1NC1CCCOC1 (single isomer, unassigned) [Example 142]
EC50 [1, 4]: 354 nM | IC50 (IRAK4; [5]): 11.4 nM

Structure (SMILES): CC(C)(O)[C@H](F)CNC(=O)c1cnc(-n2ncc3cc(C#N)cnc32)cc1NC1CCCOC1 (single isomer, unassigned) [Example 143]
EC50 [1, 6]: 185 nM | IC50 (IRAK4; [5]): 6.5 nM

Structure (SMILES): CC(F)[C@H](C)Nc1cc(-n2ncc3cc(C#N)cnc32)ncc1C(=O)NC[C@@H](F)C(C)(C)O (single isomer, unassigned) [Example 202]
EC50 [1, 4]: 131 nM | IC50 (IRAK4; [5]): 10.6 nM

Structure (SMILES): CC(F)[C@H](C)Nc1cc(-n2ncc3cc(C#N)cnc32)ncc1C(=O)NC[C@@H](F)C(C)(C)O (single isomer, unassigned) [Example 203]
EC50 [1, 6]: 124 nM | IC50 (IRAK4; [5]): 3.9 nM

Structure (SMILES): CC(C)Nc1cc(-n2ncc3cc(C#N)cnc32)ncc1C(=O)NC[C@@H](F)C(O)C(C)C (single isomer, unassigned) [Example 232]
EC50 [1, 4]: 33 nM | IC50 [1, 4]: 211 nM | IC50 (IRAK4; [5]): 2.3 nM

Structure (SMILES): CC(C)Nc1cc(-n2ncc3cc(C#N)cnc32)ncc1C(=O)NC[C@@H](F)C(O)C(C)C (single isomer, unassigned) [Example 233]
EC50 [1, 6]: 38 nM | IC50 [1, 6]: 176 nM | IC50 (IRAK4; [5]): 3.6 nM

Structure (SMILES): CC(C)CC(C)Nc1cc(-n2ccc3cc(C#N)cnc32)ncc1C(=O)NC[C@@H](F)C(C)(C)O (single isomer, unassigned) [Example 454]
EC50 [1, 2]: 757 nM | IC50 [1, 2]: 289 nM | IC50 (IRAK4; [3]): 5.9 nM

Structure (SMILES): CC(O)CCNc1cc(-n2ccc3cc(C#N)cnc32)ncc1C(=O)NC[C@@H](F)C(C)(C)O (single isomer, unassigned) [Example 461]
EC50 [1, 7]: 74 nM | IC50 [1, 7]: 122 nM | IC50 (IRAK4; [3]): 2.5 nM

Structure (SMILES): CC(O)CCNc1cc(-n2ccc3cc(C#N)cnc32)ncc1C(=O)NC[C@@H](F)C(C)(C)O (single isomer, unassigned) [Example 462]
EC50 [1, 7]: 66 nM | IC50 [1, 7]: 398 nM | IC50 (IRAK4; [3]): 2.9 nM

Structure (SMILES): CC(C)CC(O)[C@H](C)Nc1cc(-n2ccc3cc(C#N)cnc32)ncc1C(=O)NC[C@@H](F)C(C)(C)O (single isomer, unassigned) [Example 496]
IC50 [1, 2]: 197 nM | IC50 (IRAK4; [3]): 10.9 nM

Structure (SMILES): CC(C)C(O)CNc1cc(-n2ncc3cc(Cl)cnc32)ncc1C(=O)NC[C@@H](F)C(C)(C)O (single isomer, unassigned) [Example 594]
IC50 [1, 2]: 319 nM | IC50 (IRAK4; [3]): 17.5 nM

Structure (SMILES): CC(C)C(O)CNc1cc(-n2ncc3cc(Cl)cnc32)ncc1C(=O)NC[C@@H](F)C(C)(C)O (single isomer, unassigned) [Example 596]
IC50 [1, 7]: 578 nM | IC50 (IRAK4; [3]): 18.2 nM

Structure (SMILES): CC(C)(O)[C@H](F)CNC(=O)c1cnc(-n2ncc3cc(C#N)cnc32)cc1NC1CCC(F)(F)C1 (single isomer, unassigned) [Example 614]
EC50 [1, 2]: 481 nM | IC50 [1, 7]: 491 nM | IC50 (IRAK4; [3]): 7.7 nM

Structure (SMILES): CC(C)(O)[C@H](F)CNC(=O)c1cnc(-n2ncc3cc(C#N)cnc32)cc1NC1CCC(F)(F)C1 (single isomer, unassigned) [Example 615]
IC50 [1, 7]: 190 nM | IC50 (IRAK4; [3]): 2.3 nM

Structure (SMILES): CC(C)(O)[C@H](F)CNC(=O)c1cnc(-n2ncc3cc(F)cnc32)cc1NC1CCC(F)C1 (single isomer, unassigned) [Example 618]
EC50 [1, 2]: 127 nM | IC50 (IRAK4; [3]): 5.8 nM

Structure (SMILES): CC(C)(O)[C@H](F)CNC(=O)c1cnc(-n2ncc3cc(C#N)cnc32)cc1N[C@@H]1C[C@H]1CO (single isomer, unassigned) [Example 642]
IC50 [1, 2]: 197 nM | IC50 (IRAK4; [3]): 4.8 nM

Structure (SMILES): CC(C)(O)[C@H](F)CNC(=O)c1cnc(-n2ncc3cc(C#N)cnc32)cc1N[C@@H]1C[C@H]1CO (single isomer, unassigned) [Example 643]
IC50 [1, 7]: 320 nM | IC50 (IRAK4; [3]): 5.4 nM

Structure (SMILES): CC(C)Nc1cc(-n2ccc3cc(C#N)ccc32)ncc1C(=O)NC[C@@H](F)C(C)(C)O [Example 1, (R)-6-(5-Cyano-1H-indol-1-yl)-N-(2-fluoro-3-hydroxy-3-methylbutyl)-4-(isopropylamino)nicotinamide]
EC50 [1, 4]: 901 nM | IC50 [1, 4]: 873 nM | IC50 (IRAK4; [5]): 3.3 nM

Now from value to molecule, other results behind:

IC50 (IRAK4; [5]): 1.9 nM
Structure (SMILES): CC(C)(O)[C@H](F)CNC(=O)c1cnc(-n2ccc3cc(C#N)cnc32)cc1NC1CCOCC1F (single isomer, unassigned) [Example 106]
IC50 [1, 4]: 896 nM | EC50 [1, 6]: 896 nM

IC50 (IRAK4; [5]): 1.8 nM
Structure (SMILES): CC(C)(O)[C@H](F)CNC(=O)c1cnc(-n2ccc3cc(C#N)cnc32)cc1NC1CCOCC1F (single isomer, unassigned) [Example 107]
EC50 [1, 6]: 57 nM

IC50 (IRAK4; [5]): 1 nM
Structure (SMILES): CC(C)(O)[C@H](F)CNC(=O)c1cnc(-n2ccc3cc(C#N)cnc32)cc1NC1CCC(F)C1 (single isomer, unassigned) [Example 109]
EC50 [1, 4]: 45 nM

IC50 (IRAK4; [5]): 1.3 nM
Structure (SMILES): CC(C)(O)[C@H](F)CNC(=O)c1cnc(-n2ccc3cc(C#N)cnc32)cc1NC1CCC(F)C1 (single isomer, unassigned) [Example 110]
EC50 [1, 6]: 47 nM

IC50 (IRAK4; [3]): 1.6 nM
Structure (SMILES): CC(CCF)Nc1cc(-n2ccc3cc(C#N)cnc32)ncc1C(=O)NC[C@@H](F)C(C)(C)O (single isomer, unassigned) [Example 426]
EC50 [1, 2]: 51 nM

IC50 (IRAK4; [3]): 2.8 nM
Structure (SMILES): CC(CCF)Nc1cc(-n2ccc3cc(C#N)cnc32)ncc1C(=O)NC[C@@H](F)C(C)(C)O (single isomer, unassigned) [Example 427]
EC50 [1, 7]: 89 nM

IC50 (IRAK4; [3]): 5.3 nM
Structure (SMILES): CC(C)(O)[C@H](F)CNC(=O)c1cnc(-n2ccc3cc(C#N)cnc32)cc1NC1CCCC(CO)C1 (single isomer, unassigned) [Example 445]
EC50 [1, 2]: 108 nM

IC50 (IRAK4; [3]): 3.5 nM
Structure (SMILES): CC(C)(O)[C@H](F)CNC(=O)c1cnc(-n2ccc3cc(C#N)cnc32)cc1NC1COCC1(F)F (single isomer, unassigned) [Example 484]
IC50 [1, 7]: 282 nM

IC50 (IRAK4; [3]): 8.7 nM
Structure (SMILES): CC(C)(O)[C@H](F)CNC(=O)c1cnc(-n2ccc3cc(C#N)cnc32)cc1NC1COCC1(F)F (single isomer, unassigned) [Example 485]
EC50 [1, 2]: 198 nM | IC50 [1, 7]: 1080 nM

IC50 (IRAK4; [3]): 4 nM
Structure (SMILES): CC(C)(O)[C@H](F)CNC(=O)c1cnc(-n2ncc3cc(F)cnc32)cc1NC1CCC(F)C1 (single isomer, unassigned) [Example 619]
EC50 [1, 7]: 119 nM

IC50 (IRAK4; [5]): 1.6 nM
Structure (SMILES): CC(C)(O)[C@H](F)CNC(=O)c1cnc(-n2ccc3cc(C#N)cnc32)cc1NC1CC1 [Example 2, (R)-6-(5-cyano-1H-pyrrolo[2,3-b]pyridin-1-yl)-4-(cyclopropylamino)-N-(2-fluoro-3-hydroxy-3-methylbutyl)nicotinamide]
EC50 [1, 4]: 8 nM | IC50 [1, 4]: 26 nM

IC50 (IRAK4; [5]): 1 nM
Structure (SMILES): CC(C)(O)[C@H](F)CNC(=O)c1cnc(-n2ccc3cc(C#N)cnc32)cc1NC1CCOCC1 [Example 3, (R)-6-(5-cyano-1H-pyrrolo[2,3-b]pyridin-1-yl)-N-(2-fluoro-3-hydroxy-3-methylbutyl)-4-((tetrahydro-2H-pyran-4-yl)amino)nicotinamide]
EC50 [1, 4]: 11 nM | IC50 [1, 4]: 48 nM

IC50 (IRAK4; [5]): 1.4 nM
Structure (SMILES): CCNc1cc(-n2ccc3cc(C#N)cnc32)ncc1C(=O)NC[C@@H](F)C(C)(C)O [Example 4, (R)-6-(5-cyano-1H-pyrrolo[2,3-b]pyridin-1-yl)-4-(ethylamino)-N-(2-fluoro-3-hydroxy-3-methylbutyl) nicotinamide]
EC50 [1, 4]: 15 nM | IC50 [1, 4]: 157 nM

From patent US9169252B2 (BRISTOL-MYERS SQUIBB COMPANY, priority 2014, dated 2015)
